The values that follow come from patent publication US20240316023A1, “BENEDIN, PIPERIDINE, 2-BENZHYDRYL-3-HYDROXY-N-METHYL-, HYDROCHLORIDE AND DERIVATIVES THEREOF FOR USE IN TREATING KLEINE-LEVIN SYNDROME” (priority 2021, published 2024).

Each structure is given as a SMILES string.

Assay [1] addresses T1, DAT (h) (antagonist radioligand) (Homo sapiens, UniProt Q01959).
T1 construct: CEREP (Eurofins, France), contract panel
Briefly: Radioligand binding panel (Eurofins/CEREP), DAT. The following applies: % inhibition of control specific binding. The procedure: (§1) Benedin was tested at 10^−5 M, calculated as a % inhibition of control specific binding of a radioactively labeled ligand specific for each target.
(§2) This binding profile panel was broadly defined with roughly an equal number of selective, central and peripheral therapeutically relevant targets, including native animal tissues, radioligands and specific enzymes involved in cell cycle regulation in accordance with Eurofins Standard Operating Procedure.
(§3) For radioligand binding experiments, the half maximal inhibitory concentration (IC50) and the half maximal effective concentration (EC50) values were determined (via computer software) by nonlinear regression analysis of the competition curves using Hill equation curve fitting. The inhibition constants (Ki) were calculated using the Cheng-Prusoff equation (Ki=IC50/(1+(L/KD)), where L is the concentration of radioligand in the assay, and KD is the affinity of the radioligand for the receptor.^60
(§4) The results are expressed as a % control specific binding ([measured specific binding/control specific binding]×100) and as a % inhibition of control specific binding (100−[(measured specific binding/control specific binding)×100] obtained in the presence of the test compounds. […]

The target in assay [2] is T2, M1 (h) (antagonist radioligand) (Homo sapiens, UniProt P11229).
T2 construct: CEREP (Eurofins, France), contract panel
T2 sequence (P11229 1-460): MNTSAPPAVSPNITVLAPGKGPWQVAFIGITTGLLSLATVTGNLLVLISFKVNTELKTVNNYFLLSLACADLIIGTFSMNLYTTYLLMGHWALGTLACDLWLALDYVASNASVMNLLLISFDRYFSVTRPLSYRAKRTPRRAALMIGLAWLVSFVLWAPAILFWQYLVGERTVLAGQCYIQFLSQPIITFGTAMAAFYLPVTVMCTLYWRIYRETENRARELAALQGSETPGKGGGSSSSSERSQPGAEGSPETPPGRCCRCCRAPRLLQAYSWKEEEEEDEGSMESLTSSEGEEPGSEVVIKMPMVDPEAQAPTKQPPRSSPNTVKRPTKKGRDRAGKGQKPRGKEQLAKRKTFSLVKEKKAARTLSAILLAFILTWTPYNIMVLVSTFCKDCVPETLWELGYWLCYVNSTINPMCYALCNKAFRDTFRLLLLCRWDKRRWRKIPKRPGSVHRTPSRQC
Briefly: Radioligand binding panel (Eurofins/CEREP), M1. The following applies: 10^−5 M; % inhibition of control specific binding; read-out: % Inhibition at 10^−5M Benedin. Here is the method: as §1, §2, §3, §4

The target of assay [3] is T3, NET (h) (antagonist radioligand) (Homo sapiens, UniProt P23975).
T3 construct: CEREP (Eurofins, France), contract panel
In words: Radioligand binding panel (Eurofins/CEREP), NET. The following applies: % inhibition of control specific binding. Here is the method: as §1, §2, §3, §4

Setting [4] is: 10^−5 M, read-out: % Inhibition at 10^−5M Benedin.

T1 sequence (Q01959 whole entry): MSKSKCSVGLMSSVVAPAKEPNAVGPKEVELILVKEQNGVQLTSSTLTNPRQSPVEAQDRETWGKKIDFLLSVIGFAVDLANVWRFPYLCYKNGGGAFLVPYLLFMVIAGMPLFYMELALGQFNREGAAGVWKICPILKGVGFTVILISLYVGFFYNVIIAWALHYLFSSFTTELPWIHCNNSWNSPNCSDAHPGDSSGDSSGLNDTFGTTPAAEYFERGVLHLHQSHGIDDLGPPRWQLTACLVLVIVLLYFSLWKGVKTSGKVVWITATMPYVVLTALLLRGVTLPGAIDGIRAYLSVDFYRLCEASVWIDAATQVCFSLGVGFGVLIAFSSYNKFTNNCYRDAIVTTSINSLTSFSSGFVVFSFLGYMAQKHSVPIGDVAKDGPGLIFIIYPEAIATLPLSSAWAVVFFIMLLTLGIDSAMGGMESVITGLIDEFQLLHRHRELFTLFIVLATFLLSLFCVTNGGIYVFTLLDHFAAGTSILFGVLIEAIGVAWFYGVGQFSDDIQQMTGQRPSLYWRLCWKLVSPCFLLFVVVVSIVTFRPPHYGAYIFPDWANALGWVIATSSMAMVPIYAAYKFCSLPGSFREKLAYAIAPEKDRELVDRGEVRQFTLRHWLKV
T3 sequence (P23975 whole entry): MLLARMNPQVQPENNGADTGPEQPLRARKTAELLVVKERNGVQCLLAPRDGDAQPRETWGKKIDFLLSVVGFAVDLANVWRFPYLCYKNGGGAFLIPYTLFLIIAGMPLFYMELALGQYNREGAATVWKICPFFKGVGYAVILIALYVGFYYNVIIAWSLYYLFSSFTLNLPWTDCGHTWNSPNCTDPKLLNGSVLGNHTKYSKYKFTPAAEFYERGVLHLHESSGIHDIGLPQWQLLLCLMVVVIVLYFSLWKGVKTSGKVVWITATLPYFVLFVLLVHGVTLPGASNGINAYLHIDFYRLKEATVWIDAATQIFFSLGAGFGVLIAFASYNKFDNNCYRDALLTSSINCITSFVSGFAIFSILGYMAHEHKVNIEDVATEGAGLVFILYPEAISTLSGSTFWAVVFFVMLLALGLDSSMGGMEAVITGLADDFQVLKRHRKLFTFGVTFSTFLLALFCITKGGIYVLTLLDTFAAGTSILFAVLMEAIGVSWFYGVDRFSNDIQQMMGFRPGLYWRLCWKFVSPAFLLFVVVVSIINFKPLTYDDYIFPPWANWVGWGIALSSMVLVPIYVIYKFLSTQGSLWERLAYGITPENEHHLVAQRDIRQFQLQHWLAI

`CN1CCCC(O)C1C(c1ccccc1)c1ccccc1` (centres unmarked) [Benedin, 2-benzhydryl-3-hydroxy-N-methyl-piperidine]: the values for the inhibition at 10 µM in assay [1] (setting [4]), in assay [2] and in assay [3] (setting [4]) were 99.1%, 75% and 71.9%, respectively. The “% Inhibition at 10^−5M Benedin” value in assay [1] and in assay [3] was “appreciable potencies” each time.
